Data taken from ChEMBL document CHEMBL6083261, “Structure-guided design and photochemical synthesis of new carbamo(dithioperoxo)thioates with improved potencies to SARS-CoV-2 3CLpro” (Bioorg Med Chem, 2024).

Tests used:
[1] = target: T1, Replicase polyprotein 1ab (Severe acute respiratory syndrome coronavirus 2, UniProt P0DTD1); test: (§1) Inhibition of SARS-CoV-2 N/C terminal 6his tagged 3CL protease extracted from Escherichia coli BL21(DE3) using CA-AVLQSGFR-Lys(Dnp)-Lys-NH2 as fluorescent substrate preincubated for 1 hr followed by substrate addition and measured after 20 mins by FRET analysis
[2] = target: T1, Replicase polyprotein 1ab; test: Inhibition of SARS-CoV-2 PL protease
[3] = target: T1, Replicase polyprotein 1ab; test: Inhibition of SARS-CoV-2 RdRp
[4] = target: Replicase polyprotein 1ab (Severe acute respiratory syndrome coronavirus 2) (UniProt P0DTD1); test: as §1, with “10 mins” for “1 hr”, “every 10 sec for 10” for “after 20”, “mins in presence of DTT” for “mins”, “analysis relative to control” for “analysis”; design: concentration or dose not given beside the values; settings: time 20.0 min
[5] = target: Replicase polyprotein 1ab (Severe acute respiratory syndrome coronavirus 2) (UniProt P0DTD1); test: Inhibition of SARS-CoV-2 N/C terminal 6his tagged 3CL protease extracted from Escherichia coli BL21(DE3) using CA-AVLQSGFR-Lys(Dnp)-Lys-NH2 as fluorescent substrate preincubated for 1 hr followed by substrate addition and measured after 20 mins by FRET analysis relative to control; design: concentration or dose not given beside the values; settings: time 80.0 min
Vero C1008 = test: Cytotoxicity against African green monkey Vero E6 cells at 1 mM incubated for 24 hrs by CCK-8 method; type: toxicity, cell-based; settings: chlorocebus sabaeus, vero c1008, 24 h, 1000 µM

Question: Which IC50 [1] does the source give for `S=C(SSC(=S)N1CCCCC1)N1CCCCC1` [BIS(PIPERIDINYLTHIOCARBONYL)DISULFIDE] here?
Answer: The IC50 was 1.48 µM.

Question: And the IC50 [2]?
Answer: The IC50 was 70 nM.

Question: And the IC50 [3]?
Answer: Its IC50 is 10.2 µM.

Question: What does the source list for `OC1CCN(C(=S)SSCc2ccccc2)CC1`?
Answer: IC50 [1]: 0.25 µM; IC50 [2]: 330 nM; IC50 [3]: 21.4 µM; inhibition [4]: 60%; inhibition [5]: > 95%

Question: For `OC1CCN(C(=S)SSc2ccc(C(F)(F)F)cc2)CC1`, which IC50 [1] is on record?
Answer: Its IC50 is 0.14 µM.

Question: What about the IC50 [2] of the same compound?
Answer: Its IC50 is 40 nM.

Question: What about the IC50 [3] of the same compound?
Answer: Its IC50 is 15.9 µM.

Question: And the Activity (Vero C1008)?
Answer: Its Activity is “Toxic”.

Question: And the inhibition [4]?
Answer: Its inhibition is 60%.

Question: What about the inhibition [5] of the same compound?
Answer: Its inhibition is > 95%.

Question: How did the IC50 [1] turn out when `COc1ccc(SSC(=S)N2CCC(O)CC2)cc1` was run?
Answer: Its IC50 is 0.23 µM.

Question: What about the IC50 [2] of the same compound?
Answer: The IC50 was 150 nM.

Question: What about the IC50 [3] of the same compound?
Answer: The IC50 was 8.52 µM.

Question: What about the Activity (Vero C1008) of the same compound?
Answer: The Activity was “Toxic”.

Question: What about the inhibition [4] of the same compound?
Answer: Its inhibition is 60%.

Question: What about the inhibition [5] of the same compound?
Answer: Its inhibition is > 95%.

Question: For `O=[N+]([O-])c1ccc(SSC(=S)N2CCC(O)CC2)cc1`, which IC50 [1] is on record?
Answer: Its IC50 is 0.24 µM.

Question: And the IC50 [2]?
Answer: The IC50 was 320 nM.

Question: And the IC50 [3]?
Answer: The IC50 was 45.6 µM.

Question: What about the Activity (Vero C1008) of the same compound?
Answer: Its Activity is “Toxic”.

Question: And the inhibition [4]?
Answer: The inhibition was 60%.

Question: What about the inhibition [5] of the same compound?
Answer: The inhibition was > 95%.

Question: With `S=C(SSc1ccccc1)N1CCCC1` as the compound, how does the IC50 [1] read?
Answer: The IC50 was 0.4 µM.

Question: And the IC50 [2]?
Answer: The IC50 was 220 nM.

Question: And the IC50 [3]?
Answer: The IC50 was 12 µM.

Question: Which results are given for `S=C(SSC(=S)N1CCCC1)N1CCCC1` [BIS(PYRROLIDINYLTHIOCARBONYL)DISULFIDE]?
Answer: IC50 [1]: 1.34 µM; IC50 [2]: 60 nM; IC50 [3]: 8.92 µM

Question: `COC(=O)CCSSC(=S)N1CCC(O)CC1` was tested. Which IC50 [1] did it give?
Answer: The IC50 was 0.47 µM.

Question: And the IC50 [2]?
Answer: The IC50 was > 100000 nM.

Question: What about the IC50 [3] of the same compound?
Answer: Its IC50 is > 100 µM.

Question: What about the Activity (Vero C1008) of the same compound?
Answer: The Activity was “Toxic”.

Question: What about the inhibition [5] of the same compound?
Answer: Its inhibition is > 95%.

Question: Which IC50 [1] does the source give for `S=C(SSc1ccccc1)N1CCOCC1` here?
Answer: The IC50 was 0.66 µM.

Question: What about the IC50 [2] of the same compound?
Answer: The IC50 was 1730 nM.

Question: What about the IC50 [3] of the same compound?
Answer: Its IC50 is > 100 µM.

Question: What does the source list for `OC1CCN(C(=S)SSc2ccccc2)CC1`?
Answer: IC50 [1]: 0.35 µM; IC50 [2]: > 100000 nM; IC50 [3]: > 100 µM; Activity (Vero C1008): Toxic; inhibition [4]: 60%; inhibition [5]: > 95%

Question: `CCN(CC)C(=S)SSc1ccccc1` was tested. Which IC50 [1] did it give?
Answer: Its IC50 is 1070 µM.

Question: And the IC50 [2]?
Answer: The IC50 was > 100000 nM.

Question: And the IC50 [3]?
Answer: The IC50 was > 100 µM.

Question: Which IC50 [1] does the source give for `COC(=O)C1CCCN1C(=S)SSc1ccccc1` (stereo not given) here?
Answer: Its IC50 is 0.54 µM.

Question: What about the IC50 [2] of the same compound?
Answer: The IC50 was 390 nM.

Question: What about the IC50 [3] of the same compound?
Answer: The IC50 was 57.6 µM.

Question: For `Oc1ccc(SSC(=S)N2CCC(O)CC2)cc1`, which IC50 [1] is on record?
Answer: The IC50 was 0.3 µM.

Question: What about the IC50 [2] of the same compound?
Answer: The IC50 was 7710 nM.

Question: And the IC50 [3]?
Answer: The IC50 was 97.8 µM.

Question: What about the Activity (Vero C1008) of the same compound?
Answer: The Activity was “Toxic”.

Question: What about the inhibition [4] of the same compound?
Answer: Its inhibition is 60%.

Question: And the inhibition [5]?
Answer: The inhibition was > 95%.

Question: How did the IC50 [1] turn out when `S=C(SSC(=S)N1CCOCC1)N1CCOCC1` was run?
Answer: The IC50 was 1.22 µM.

Question: What about the IC50 [2] of the same compound?
Answer: Its IC50 is 390 nM.

Question: And the IC50 [3]?
Answer: The IC50 was 53.6 µM.

Question: For `S=C(SSc1ccccc1)N1CCCCC1`, which IC50 [1] is on record?
Answer: Its IC50 is 0.64 µM.

Question: And the IC50 [2]?
Answer: The IC50 was 2500 nM.

Question: What about the IC50 [3] of the same compound?
Answer: The IC50 was > 100 µM.

Question: How did the IC50 [1] turn out when `OC1CCN(C(=S)SSc2ccc(F)cc2)CC1` was run?
Answer: Its IC50 is 0.19 µM.

Question: What about the IC50 [2] of the same compound?
Answer: The IC50 was 100 nM.

Question: What about the IC50 [3] of the same compound?
Answer: The IC50 was 9.77 µM.

Question: And the Activity (Vero C1008)?
Answer: The Activity was “Toxic”.

Question: And the inhibition [4]?
Answer: The inhibition was 60%.

Question: What about the inhibition [5] of the same compound?
Answer: The inhibition was > 95%.

Question: `OC1CCN(C(=S)SSC(=S)N2CCC(O)CC2)CC1` was tested. Which IC50 [1] did it give?
Answer: Its IC50 is 0.92 µM.

Question: What about the IC50 [2] of the same compound?
Answer: Its IC50 is 580 nM.

Question: What about the IC50 [3] of the same compound?
Answer: The IC50 was 83.1 µM.

Question: What about the Activity (Vero C1008) of the same compound?
Answer: Its Activity is “Toxic”.

Question: And the inhibition [4]?
Answer: Its inhibition is 60%.
